Values quoted from earlier work, collected in US7632837B2, “Bicyclic heterocycles as cannabinoid-1 receptor modulators” (Bristol-Myers Squibb Company, priority 2005, dated 2009).

Assays:
[1] = chronic administration for two weeks
[2] = 16 week trial period; published Phase IIb data

Row | SMILES | body weight [1] | body weight in human subjects [2]
1 | Cc1c(C(=O)NN2CCCCC2)nn(-c2ccc(Cl)cc2Cl)c1-c1ccc(I)cc1 [AM-251] | substantial body weight reduction | 
2 | Cc1c(C(=O)NN2CCCCC2)nn(-c2ccc(Cl)cc2Cl)c1-c1ccc(Cl)cc1 [SR-141716] |  | dose-dependently reduced body weight
